According to ChEMBL document CHEMBL5233250, “Factor XIIIa inhibitors as potential novel drugs for venous thromboembolism” (Eur J Med Chem, 2020):
pIC50, pKi: −log10 of the molar value. Blank lines part the entries; values can stand above or below the compound they belong to. Numbered stars: 1 amine (or outer) side, 2 acyl side, 3 side chain; on linkers, the order of the positions; unused ones are H or OH. Square brackets hold non-standard residues; d marks the D form. Peptide text beside a SMILES is read from it. * marks the point of attachment. ξ: configuration not given here. X2 = COC(=O)/C=C/CC[C@H](N[*:1])C(=O)[*:2]; Ile(3ξ) = CCC(C)[C@H](N)C(=O)O; X4 = CCOC(=O)c1nc(C(=O)*)cs1; X3 = O=C(c1nc2ccccc2[nH]1)*; Nle = CCCC[C@H](N)C(=O)O; X1 = Cc1nc(C(=O)*)cs1

Columns and labels:
[1] = Inhibition of transglutaminase in guinea pig liver assessed as inhibition constant using Z-Gln-Gly as substrate by Michaelis-Menten analysis; type: tissue-based, Cavia porcellus
[2] = molecular target: T1, Coagulation factor XIII A chain (Bos taurus) (UniProt P12260); assay: Inhibition of bovine plasma coagulation factor XIIIa assessed as threshold concentration by measuring insoluble fibrin per total fibrin incubated for 30 mins in presence of bovine fibrin by biuret method; type: cell-free
T1 sequence (whole entry): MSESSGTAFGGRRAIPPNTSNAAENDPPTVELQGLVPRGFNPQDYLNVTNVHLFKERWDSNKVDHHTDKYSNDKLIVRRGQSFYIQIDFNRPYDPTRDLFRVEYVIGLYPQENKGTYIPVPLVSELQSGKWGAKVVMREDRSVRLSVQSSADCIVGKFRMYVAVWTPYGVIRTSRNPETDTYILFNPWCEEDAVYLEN

[3] = molecular target: T2, Coagulation factor XIII A chain (Homo sapiens, UniProt P00488); assay: Inhibition of human coagulation factor XIIIa assessed as inhibition of factor 13a mediated crosslinking of fibronectin-collagen incubated for 2 hrs by SDS-PAGE analysis
T2 sequence (P00488 whole entry): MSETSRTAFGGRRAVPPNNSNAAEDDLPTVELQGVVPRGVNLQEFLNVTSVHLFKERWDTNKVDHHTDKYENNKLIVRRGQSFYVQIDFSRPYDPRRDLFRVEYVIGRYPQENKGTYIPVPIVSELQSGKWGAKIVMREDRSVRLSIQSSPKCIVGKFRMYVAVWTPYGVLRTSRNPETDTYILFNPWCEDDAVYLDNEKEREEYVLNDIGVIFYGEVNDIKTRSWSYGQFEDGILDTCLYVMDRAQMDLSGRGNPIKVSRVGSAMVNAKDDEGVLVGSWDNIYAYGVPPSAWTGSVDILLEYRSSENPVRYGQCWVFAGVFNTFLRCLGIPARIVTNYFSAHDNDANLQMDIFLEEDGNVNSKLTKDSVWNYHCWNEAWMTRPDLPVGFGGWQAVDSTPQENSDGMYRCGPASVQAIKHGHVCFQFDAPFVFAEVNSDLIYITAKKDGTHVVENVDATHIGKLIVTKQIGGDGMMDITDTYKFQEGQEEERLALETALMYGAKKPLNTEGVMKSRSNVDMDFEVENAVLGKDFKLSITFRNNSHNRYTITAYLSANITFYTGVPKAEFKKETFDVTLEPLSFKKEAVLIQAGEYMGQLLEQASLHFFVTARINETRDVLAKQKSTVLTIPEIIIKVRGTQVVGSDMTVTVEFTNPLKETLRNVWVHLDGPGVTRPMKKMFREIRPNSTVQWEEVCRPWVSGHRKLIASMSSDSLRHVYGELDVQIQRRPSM

[4] = Ratio of rate constant for human plasma coagulation factor XIIIa to rate constant for Glutathione (unknown origin)
[5] = molecular target: T3, Coagulation factor XIII A chain (Homo sapiens) (UniProt P00488); assay: Binding affinity to human plasma coagulation factor XIIIa assessed as rate constant in presence of GSH by DTNB based UV-fluorescence assay; type: cell-free
T3 sequence (whole entry): T2 sequence (P00488 whole entry)

[6] = molecular target: T2, Coagulation factor XIII A chain; assay: Inhibition of human recombinant coagulation factor XIIIa
[7] = molecular target: T2, Coagulation factor XIII A chain; assay: Inhibition of human coagulation factor XIIIa
[8] = molecular target: T3, Coagulation factor XIII A chain (Homo sapiens); assay: Inhibition of human coagulation factor XIIIa assessed as maximal efficacy upto 20 nM
[9] = molecular target: T3, Coagulation factor XIII A chain (Homo sapiens); assay: Inhibition of human coagulation factor XIIIa assessed as enzyme residual activity at 100 uM in presence of polybrene by Spectrofluorometric assay
Homo sapiens [10] = species on record: Homo sapiens; assay: Selectivity index, ratio of IC50 for inhibition of human coagulation factor XIIIa to IC50 for inhibition of human Factor Xa
[11] = molecular target: T3, Coagulation factor XIII A chain (Homo sapiens); assay: Inhibition of human coagulation factor XIIIa assessed as maximal inhibition of factor 13a mediated fibrin polymerization at 5 to 500 uM incubated for 24 hrs by SDS-PAGE analysis; conditions: dose 5-500 µM
[12] = Selectivity index, ratio of IC50 for inhibition of human coagulation factor XIIIa to IC50 for inhibition of papain (unknown origin)
Homo sapiens [13] = species on record: Homo sapiens; assay: Selectivity index, ratio of IC50 for inhibition of human coagulation factor XIIIa to IC50 for inhibition of human alpha-thrombin
[14] = molecular target: T2, Coagulation factor XIII A chain; assay: Inhibition of human plasma coagulation factor XIIIa by fluorescence spectrophotometeric assay; type: cell-free
Canis familiaris [15] = assay: Antithrombotic activity in Mongrel dog model of electrically-induced coronary artery thrombosis assessed as time to reperfusion at 0.1 mg/kg,iv pre-administered for 15 mins followed by electric impulse stimulation and t-PA and measured after 90 mins; type: functional, Canis lupus familiaris; conditions: time 105 min, 1.75 h
Canis familiaris [16] = assay: Antithrombotic activity in Mongrel dog model of electrically-induced coronary artery thrombosis assessed as reduction in residual thrombus mass at 0.1 mg/kg,iv pre-administered for 15 mins followed by electric impulse stimulation and t-PA and measured after 90 mins; type: functional, Canis lupus familiaris; conditions: time 105 min, 1.75 h
Canis familiaris [17] = assay: Antithrombotic activity in Mongrel dog model of electrically-induced coronary artery thrombosis assessed as time to occlusion at 0.1 mg/kg,iv pre-administered for 15 mins followed by electric impulse stimulation and t-PA and measured after 90 mins; type: functional, Canis lupus familiaris; conditions: time 105 min, 1.75 h
Canis familiaris [18] = assay: Antithrombotic activity in Mongrel dog model of electrically-induced coronary artery thrombosis assessed as re-occlusion rate at 0.1 mg/kg,iv pre-administered for 15 mins followed by electric impulse stimulation and t-PA and measured after 90 mins; type: functional, Canis lupus familiaris; conditions: time 105 min, 1.75 h
[19] = Plasma concentration in New Zealand White rabbit at iv dosed upto 8 hrs by HPLC method; type: ADME, organism-based, Oryctolagus cuniculus
[20] = Total clearance in New Zealand White rabbit at iv dosed upto 8 hrs by HPLC method; type: ADME, organism-based, Oryctolagus cuniculus; conditions: in vivo
[21] = Half life in New Zealand White rabbit at iv dosed upto 8 hrs by HPLC method; type: ADME, organism-based, Oryctolagus cuniculus; conditions: in vivo
[22] = molecular target: T4, Protein-glutamine gamma-glutamyltransferase (Homo sapiens, UniProt P21980); assay: Inhibition of tissue transglutaminase (unknown origin); type: tissue-based
T4 sequence (P21980 whole entry): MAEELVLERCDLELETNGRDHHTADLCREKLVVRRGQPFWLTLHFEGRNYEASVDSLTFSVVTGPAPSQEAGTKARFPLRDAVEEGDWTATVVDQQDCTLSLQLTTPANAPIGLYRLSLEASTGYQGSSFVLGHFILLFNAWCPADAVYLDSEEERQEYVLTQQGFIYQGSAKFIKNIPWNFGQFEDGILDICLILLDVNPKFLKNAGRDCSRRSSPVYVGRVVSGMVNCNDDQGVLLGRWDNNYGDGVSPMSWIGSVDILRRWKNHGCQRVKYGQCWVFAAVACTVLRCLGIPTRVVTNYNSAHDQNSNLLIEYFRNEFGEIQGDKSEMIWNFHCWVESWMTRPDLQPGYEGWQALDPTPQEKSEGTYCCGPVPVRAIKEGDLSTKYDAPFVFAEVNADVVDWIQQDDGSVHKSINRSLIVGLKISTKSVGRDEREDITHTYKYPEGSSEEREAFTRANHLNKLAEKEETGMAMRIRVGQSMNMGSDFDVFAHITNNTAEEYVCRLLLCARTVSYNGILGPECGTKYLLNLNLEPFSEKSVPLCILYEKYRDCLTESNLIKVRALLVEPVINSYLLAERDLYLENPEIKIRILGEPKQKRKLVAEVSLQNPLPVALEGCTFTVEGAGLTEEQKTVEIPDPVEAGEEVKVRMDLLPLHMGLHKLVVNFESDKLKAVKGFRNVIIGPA

[23] = molecular target: T2, Coagulation factor XIII A chain; assay: Inhibition of human plasma coagulation factor XIIIa; type: cell-free

pKi [1]: 4.31
SMILES: NCCCCCNC(=S)Nc1ccccc1

Activity [2]: 0.2 µg/mL
SMILES: O=C(CCl)CCCCCNS(=O)(=O)c1ccc(Cl)cc1

pIC50 [3]: 4.00
SMILES: NCCCNCCCCNCCCN [SPERMINE]

Activity [2]: 0.05 µg/mL
SMILES: Cc1ccc(S(=O)(=O)NCCCCCC(=O)CCl)cc1

Activity [2]: 50 µg/mL
SMILES: Cc1ccc(S(=O)(=O)NCCCCCCCCCCC(=O)CCl)cc1

Activity [2]: 40 µg/mL
SMILES: Cc1ccc(S(=O)(=O)NCCCCOC(=O)CCl)cc1

Ratio [4]: 4.1 10^6No_unit
K [5]: 4.9 10^4/M/s
SMILES: Cc1c(C)[n+](C)c(SCC(=O)CSc2nnnn2C)n1C

pIC50 [6]: 7.54
SMILES: CCOC(=O)c1nc(C(=O)N[C@@H](CC/C=C/C(=O)OC)C(=O)N[C@@H](CC(C)C)C(=O)N[C@H](C(=O)N[C@@H](CC(C)C)C(=O)N2CCC[C@H]2C(=O)N[C@@H](Cc2c[nH]c3ccccc23)C(=O)N2CCC[C@H]2C(N)=O)C(C)CC)cs1 (stereo partly drawn) (X4-[X2]L[Ile(3ξ)]LPWP-NH2)

pIC50 [7]: 3.93
Efficacy [8]: 93%
SMILES: O=C1C(OS(=O)(=O)O)=C(c2ccc(OS(=O)(=O)O)c(OCCCOc3cc(OS(=O)(=O)O)cc4oc(-c5ccc(OS(=O)(=O)O)c(OS(=O)(=O)O)c5)c(OS(=O)(=O)O)c(=O)c34)c2)OC2C=C(OS(=O)(=O)O)C=C(OCCCOc3cc(OS(=O)(=O)O)cc4oc(-c5ccc(OS(=O)(=O)O)c(OS(=O)(=O)O)c5)c(OS(=O)(=O)O)c(=O)c34)C12 (stereo not drawn)

Activity [9]: 85%
Ratio IC50 (Homo sapiens [10]): 9
Efficacy [8]: 98%
Efficacy [11]: 100%
Ratio IC50 [12]: 27
Ratio IC50 (Homo sapiens [13]): 26
SMILES: O=c1c(OS(=O)(=O)O)c(-c2ccc(OS(=O)(=O)O)c(OS(=O)(=O)O)c2)oc2cc(OS(=O)(=O)O)cc(OCCOc3cc(-c4oc5cc(OS(=O)(=O)O)cc(OCCOc6cc(OS(=O)(=O)O)cc7oc(-c8ccc(OS(=O)(=O)O)c(OS(=O)(=O)O)c8)c(OS(=O)(=O)O)c(=O)c67)c5c(=O)c4OS(=O)(=O)O)ccc3OS(=O)(=O)O)c12

pIC50 [14]: 7.59
SMILES: O=C(CCCCCCCc1cc1=O)NCCc1ccccc1

SMILES: CC(=O)CSc1n[n+]2c(C)csc2s1
Time (Canis familiaris [15]): 16.4 min
Activity (Canis familiaris [16]): 1.7 mg
Time (Canis familiaris [17]): 44.4 min
Activity (Canis familiaris [18]): 75%

Activity [2]: 15 µg/mL
SMILES: Cc1ccc(S(=O)(=O)NCCCCNC(=O)CCl)cc1

SMILES: NC(=O)CI
Ratio [4]: 5 10^3No_unit
K [5]: 0.8 10^4/M/s

pIC50 [14]: 5.72
SMILES: O=C(O)CCCCCc1cc1=O

Activity [2]: 0.1 µg/mL
SMILES: Cc1ccc(S(=O)(=O)N(C)CCCCCC(=O)CCl)cc1

Ratio [4]: 3.9 10^4No_unit
K [5]: 6.3 10^4/M/s
SMILES: CC(=O)CSc1n(C)c(C)c(C)[n+]1C

Activity [2]: 0.8 µg/mL
SMILES: Cc1ccc(C(=O)NCCCCCC(=O)CCl)cc1

concentration at 8 h [19]: 80 µM
clearance [20]: > 3.8 L/h/kg
half-life [21]: 7.8 min
SMILES: O=[N+]([O-])c1ccccc1S(=O)(=O)NCCCCCCNc1nsc2nccn12

pIC50 [3]: 4.00
SMILES: NCCCCNCCCN [SPERMIDINE]

pIC50 [6]: 6.99
SMILES: CCC(C)[C@H](NC(=O)[C@H](CC(C)C)NC(=O)[C@H](CC/C=C/C(=O)OC)NC(=O)c1nc2ccccc2[nH]1)C(=O)N[C@@H](CC(C)C)C(=O)N1CCC[C@H]1C(=O)N[C@@H](Cc1c[nH]c2ccccc12)C(=O)N1CCC[C@H]1C(N)=O (stereo partly drawn) (X3-[X2]L[Ile(3ξ)]LPWP-NH2)

pIC50 [14]: 6.21
SMILES: O=C(O)CCCCCCCc1cc1=O

Ratio [4]: 1.9 10^6No_unit
K [5]: 0.35 10^4/M/s
SMILES: CC(=O)CSc1n(C)cc[n+]1C

pIC50 [22]: 5.51
SMILES: C[C@@H]1CCC/C=C\C(=O)Cc2cc(O)cc(O)c2C(=O)O1

pIC50 [7]: 6.70
SMILES: CC(=O)NCCc1ccc(O)cc1

pIC50 [14]: 6.51
SMILES: O=C(O)CCCCCCCCCCc1cc1=O

pIC50 [6]: 6.86
SMILES: CCCC[C@H](NC(=O)[C@H](CC/C=C/C(=O)OC)NC(=O)c1csc(C)n1)C(=O)N[C@H](C(=O)N[C@@H](CC(C)C)C(=O)N1CCC[C@H]1C(=O)N[C@@H](Cc1c[nH]c2ccccc12)C(N)=O)C(C)CC (stereo partly drawn) (X1-[X2][Nle][Ile(3ξ)]LPW-NH2)

pIC50 [23]: 6.46
SMILES: CC(=O)CSc1n(C)c(-c2ccccc2)c(-c2ccccc2)[n+]1C
